Experimental data taken from article PMC7044277 (Nature Communications, 2020).
Values joined by “and” are separate entries in the source; they are usually repeats but may differ in a detail not shown here. Equal entries are not always repeated.

Assays:
[1] = target: DRD2 (D2 long receptor) wild-type (Homo sapiens, UniProt P14416); assay: Radioligand competition binding, [3H]-N-methylspiperone, HEK293T membranes; conditions: DRD2; [3H]-methylspiperone (0.8-1.0 nM); read-out: Ki
DRD3 wild-type = DRD3 wild-type (Homo sapiens, UniProt P35462); assay: Radioligand competition binding, [3H]-N-methylspiperone
DRD3 wild-type, sequence (P35462 whole entry): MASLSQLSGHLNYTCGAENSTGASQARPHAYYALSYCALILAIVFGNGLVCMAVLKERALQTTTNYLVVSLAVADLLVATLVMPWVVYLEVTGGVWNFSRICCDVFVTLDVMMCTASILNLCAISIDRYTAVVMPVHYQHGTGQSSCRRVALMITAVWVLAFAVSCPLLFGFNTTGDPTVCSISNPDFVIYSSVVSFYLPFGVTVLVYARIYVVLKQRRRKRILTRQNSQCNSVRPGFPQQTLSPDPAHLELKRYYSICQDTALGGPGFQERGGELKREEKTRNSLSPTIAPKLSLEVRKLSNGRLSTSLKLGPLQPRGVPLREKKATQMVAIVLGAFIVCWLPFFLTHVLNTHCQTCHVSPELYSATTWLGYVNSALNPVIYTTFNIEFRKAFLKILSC

[2] = target: T1, DRD4 (D4.4 variant) wild-type (Homo sapiens, UniProt P21917); assay: as above; conditions: DRD4; [3H]-methylspiperone (0.8-1.0 nM); read-out: Ki
T1 sequence (P21917 1-419): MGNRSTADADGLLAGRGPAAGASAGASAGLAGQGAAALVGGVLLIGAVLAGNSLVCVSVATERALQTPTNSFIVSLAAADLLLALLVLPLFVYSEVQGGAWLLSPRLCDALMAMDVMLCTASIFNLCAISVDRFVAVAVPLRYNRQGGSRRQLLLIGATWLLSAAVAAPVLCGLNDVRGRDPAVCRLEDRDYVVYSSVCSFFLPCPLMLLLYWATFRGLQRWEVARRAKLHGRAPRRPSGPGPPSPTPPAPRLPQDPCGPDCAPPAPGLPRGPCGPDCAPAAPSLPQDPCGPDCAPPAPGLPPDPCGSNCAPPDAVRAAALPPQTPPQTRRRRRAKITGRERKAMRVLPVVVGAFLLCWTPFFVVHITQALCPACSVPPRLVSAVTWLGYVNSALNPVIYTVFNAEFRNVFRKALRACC

DRD2 (D2 long receptor) [3] = target: T2, DRD2 (D2 long receptor) (Homo sapiens, UniProt P14416); assay: Gαi/o-mediated cAMP inhibition (GloSensor split-luciferase cAMP reporter), HEK293T; assay type: cell-based; conditions: DRD2; agonist, Gαi/o-mediated cAMP inhibition; read-out: EC50 ± SEM;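 further: compounds applied 15 min at room temperature, then luciferin plus 400 nM isoproterenol to raise cAMP through endogenous β2-adrenergic receptors, luminescence read 15 min later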
T2 sequence (P14416 whole entry): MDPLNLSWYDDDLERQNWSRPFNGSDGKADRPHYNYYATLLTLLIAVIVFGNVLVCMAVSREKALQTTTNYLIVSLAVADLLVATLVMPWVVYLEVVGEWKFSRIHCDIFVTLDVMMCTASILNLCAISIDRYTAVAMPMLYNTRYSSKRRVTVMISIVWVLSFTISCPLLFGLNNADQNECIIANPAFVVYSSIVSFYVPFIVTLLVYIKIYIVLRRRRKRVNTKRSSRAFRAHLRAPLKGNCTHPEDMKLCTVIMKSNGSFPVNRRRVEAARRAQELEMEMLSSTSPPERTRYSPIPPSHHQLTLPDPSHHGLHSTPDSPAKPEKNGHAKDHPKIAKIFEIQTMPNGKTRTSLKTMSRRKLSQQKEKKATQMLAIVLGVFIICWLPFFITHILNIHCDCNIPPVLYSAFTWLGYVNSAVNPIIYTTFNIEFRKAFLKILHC

DRD4 (D4.4 variant) [4] = target: T3, DRD4 (D4.4 variant) (Homo sapiens, UniProt P21917); assay: Gαi/o-mediated cAMP inhibition (GloSensor); assay type: cell-based; conditions: DRD4; agonist, cAMP inhibition; read-out: EC50 ± SEM
T3 sequence (P21917 1-419): T1 sequence (P21917 1-419)

DRD2 (D2 long receptor) [5] = target: T2, DRD2 (D2 long receptor); assay: β-arrestin2 recruitment (Tango), HTLA cells; assay type: cell-based; conditions: DRD2
DRD3 = DRD3 (Homo sapiens, UniProt P35462); assay: β-arrestin2 recruitment (Tango); assay type: cell-based; conditions: DRD3; Tango; read-out: EC50 ± SEM
DRD3, sequence (P35462 whole entry): as the sequence (P35462 whole entry) above

DRD4 (D4.4 variant) [6] = target: T3, DRD4 (D4.4 variant); assay: β-arrestin2 recruitment (Tango); assay type: cell-based; conditions: DRD4; Tango; read-out: EC50 ± SEM
DRD2 F1103.28A = DRD2 F1103.28A (Homo sapiens, UniProt P14416, F110A); assay type: binding; design: expressed in transfected cells; host or cells: HEK293T (ATCC CRL-11268); conditions: DRD2 F1103.28A
DRD2 F1103.28A, sequence (P14416 whole entry F110A): as the sequence (P14416 whole entry) above, with F110A counted along it

5HT6 = target: T4, 5HT6 (Homo sapiens, UniProt P50406); assay: β-arrestin2 recruitment (Tango); assay type: cell-based; conditions: Fig_S10p, agonist mode
T4 construct: expressed in transfected cells; host or cells: HTLA cells expressing TEV-fused β-arrestin2
T4 sequence (P50406 whole entry, the tested form may be a part): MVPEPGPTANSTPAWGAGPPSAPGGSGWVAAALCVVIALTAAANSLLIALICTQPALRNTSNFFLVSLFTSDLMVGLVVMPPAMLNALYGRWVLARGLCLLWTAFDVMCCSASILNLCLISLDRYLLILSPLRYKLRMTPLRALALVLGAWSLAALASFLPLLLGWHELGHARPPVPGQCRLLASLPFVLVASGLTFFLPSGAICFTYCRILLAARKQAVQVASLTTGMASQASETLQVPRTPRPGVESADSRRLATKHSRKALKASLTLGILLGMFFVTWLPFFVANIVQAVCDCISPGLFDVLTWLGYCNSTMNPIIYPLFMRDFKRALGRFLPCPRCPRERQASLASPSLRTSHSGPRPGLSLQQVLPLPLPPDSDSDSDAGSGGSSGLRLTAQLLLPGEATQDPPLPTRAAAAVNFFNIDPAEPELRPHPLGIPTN

5HT7A = target: T5, 5HT7A (Homo sapiens, UniProt P34969); assay: β-arrestin2 recruitment (Tango); assay type: cell-based; conditions: Fig_S10q, agonist mode
T5 construct: expressed in transfected cells; host or cells: HTLA cells expressing TEV-fused β-arrestin2
T5 sequence (P34969 1-445 isoform P34969-2): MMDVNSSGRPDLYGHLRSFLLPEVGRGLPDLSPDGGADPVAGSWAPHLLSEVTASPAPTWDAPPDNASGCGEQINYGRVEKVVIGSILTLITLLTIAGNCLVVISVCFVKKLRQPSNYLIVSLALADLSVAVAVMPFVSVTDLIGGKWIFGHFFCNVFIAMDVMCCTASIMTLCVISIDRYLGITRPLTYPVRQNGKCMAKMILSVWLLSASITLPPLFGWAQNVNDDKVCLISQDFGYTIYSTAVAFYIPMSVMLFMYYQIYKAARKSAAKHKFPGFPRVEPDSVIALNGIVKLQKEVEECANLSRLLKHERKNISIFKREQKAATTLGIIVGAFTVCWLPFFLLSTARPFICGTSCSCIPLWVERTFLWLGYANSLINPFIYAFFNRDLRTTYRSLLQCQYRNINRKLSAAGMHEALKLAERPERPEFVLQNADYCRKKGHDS

DRD2 (D2 long receptor) wild-type, sequence (P14416 whole entry): as the sequence (P14416 whole entry) above

## CCOc1cccc2cc(C(C)NCc3ccccc3)oc12.Cl (centres unmarked) [O4LE9]
[1]
  Ki: > 10 µM
DRD3 wild-type; DRD3, [3H]-methylspiperone (0.8-1.0 nM), read-out: Ki
  Ki: 5.88 µM
DRD3 wild-type; DRD3 wild-type
  pKi ± SEM: 5.23±0.25
[2]
  Ki: > 10 µM
DRD2 (D2 long receptor) [3]
  EC50: > 10 µM
DRD4 (D4.4 variant) [4]
  EC50: > 10 µM
DRD2 (D2 long receptor) [5]; Tango
  Emax relative to quinpirole response: 19.73%
DRD2 (D2 long receptor) [5]; β-arrestin2 recruitment (Tango), read-out: EC50 ± SEM
  EC50: 5.37 ± 0.964 µM
DRD3
  EC50: > 10 µM
DRD4 (D4.4 variant) [6]
  EC50: > 10 µM
DRD2 F1103.28A
  pKi ± SEM: 5.28±0.02
DRD2 F1103.28A; read-out: Ki
  Ki: 5.25 µM

## CC[C@@H](CO)NC(=O)[C@@H]1C=C2c3cccc4[nH]cc(c34)C[C@H]2N(C)C1 [methylergonovine]
5HT6; Log[Drug] -7.52
  β-arrestin2 recruitment response, replicate points of concentration-response curve: 58.3654 and 42.8218 and 40.7735 and 42.4938 and 47.6018 and 32.15
5HT6; Log[Drug] -8
  β-arrestin2 recruitment response, replicate points of concentration-response curve: 38.2178 and 17.1349 and 29.2946 and 27.8088 and 40.0294 and 64.9029 and 31.7107 and 61.5077 and 39.0249 and 30.4136
5HT6; Log[Drug] -8.52
  β-arrestin2 recruitment response, replicate points of concentration-response curve: 30.1013 and 10.6993 and 18.1498 and 24.4245 and 28.031 and 15.5168 and 0.8374 and 22.4349 and 11.5027 and 21.7874 and 10.2907 and 27.3285
5HT6; Log[Drug] -9
  β-arrestin2 recruitment response, replicate points of concentration-response curve: 20.3729 and 3.9604 and 2.141 and 7.952 and 0.7859 and 8.081 and -4.077 and -4.555 and -0.4693 and 35.6884 and 0.3477 and 9.366
5HT6; Log[Drug] -9.52
  β-arrestin2 recruitment response, replicate points of concentration-response curve: 14.1022 and -2.488 and 4.171 and 24.8948 and 4.829 and 2.461 and 0.773 and -7.38 and -5.613 and 10.7938 and 2.907 and -1.524
5HT6; Log[Drug] -10
  β-arrestin2 recruitment response, replicate points of concentration-response curve: 15.029 and -5.149 and -2.667 and -0.08663 and 7.1866 and 6.531 and -8.448 and -13.3063 and 14.3186 and 3.129 and -2.7225 and -5.682
5HT6; Log[Drug] -10.52
  β-arrestin2 recruitment response, replicate points of concentration-response curve: 3.317 and 8.465 and -0.4579 and 0.09901 and 5.631 and 26.1232 and -3.267 and -10.7113 and 5.834 and 27.1732 and 9.063 and 0.5697
5HT6; Log[Drug] -11
  β-arrestin2 recruitment response, replicate points of concentration-response curve: 5.777 and -4.208 and -3.1745 and 6.856 and 4.8832 and -1.2628 and -4.113 and -7.095 and -5.0704 and 3.773 and -2.7003 and -4.128
5HT6; Log[Drug] -11.52
  β-arrestin2 recruitment response, replicate points of concentration-response curve: -0.7317 and 4.554 and -0.9344 and -1.6151 and 0.5528 and 0.3631 and 17.5761 and 19.5362 and 55.6731 and -3.662 and -4.713 and -3.3
5HT7A; Log[Drug] -8.52
  β-arrestin2 recruitment response, replicate points of concentration-response curve: 57.2072 and 62.1985 and 0.2034 and 43.345 and 17.0227 and 39.6469 and 24.6535 and -5.393 and 3.158
5HT7A; Log[Drug] -9
  β-arrestin2 recruitment response, replicate points of concentration-response curve: 28.3493 and 32.0982 and 22.9584 and 37.3511 and 39.7632 and 14.7559 and 9.616 and 19.0912 and 1.923
5HT7A; Log[Drug] -9.52
  β-arrestin2 recruitment response, replicate points of concentration-response curve: -6.008 and 0.109 and 1.017 and 1.4676 and 14.0366 and 7.578 and 5.289 and -11.615 and 5.562
5HT7A; Log[Drug] -10
  β-arrestin2 recruitment response, replicate points of concentration-response curve: -3.669 and 16.1145 and 7.694 and 15.3008 and -0.2833 and 45.4083 and 32.224 and 8.8715 and 2.743
5HT7A; Log[Drug] -10.52
  β-arrestin2 recruitment response, replicate points of concentration-response curve: 10.5565 and 33.0718 and 2.739 and 13.5571 and -3.967 and -24.3897 and -1.32 and -17.1773 and 11.1342
5HT7A; Log[Drug] -11
  β-arrestin2 recruitment response, replicate points of concentration-response curve: -4.984 and -18.2941 and -15.3444 and 8.733 and -19.8489 and 29.4754 and -10.9833 and -5.732 and 20.4393
5HT7A; Log[Drug] -11.52
  β-arrestin2 recruitment response, replicate points of concentration-response curve: -6.553 and -20.7643 and -12.3583 and 13.7605 and -14.4653 and -10.5493 and -19.7417 and -12.1995 and -5.987
5HT7A; Log[Drug] -12
  β-arrestin2 recruitment response, replicate points of concentration-response curve: 42.2988 and -7.374 and -17.7056 and -12.5618 and -4.708 and 17.4441 and -2.395 and 25.3135 and 14.3302
